Measurements as given in patent publication US20060241083A1, “Novel heteroaryl phosphonates as cardioprotective agents” (Medicure International Inc., priority 2003, published 2006).

Test system: Male Wistar rats
Experiment: Ischemia reperfusion: infarct size after LAD occlusion (25 min) and reperfusion (2 h) in anesthetised rats
Type: in vivo, rat
Conditions: 32 mg/kg i.v. bolus 5 min prior to ischemia; 25 min LAD occlusion, 2 h reperfusion; vs vehicle 56±3% of the AAR; P=0.047, unpaired Students t-test; FIG. 2
Method: Male Wistar rats (200-300 g, Tuck, Rayleigh, Essex, U.K.) were anesthetised with thiopentone sodium (Intraval®, 120 mg/kg i.p.; Rhone-Merrieux, Essex, U.K.). The rats were tracheotomised, intubated and ventilated with a Harvard ventilator (70 strokes/min, tidal volume: 8-10 mL/kg, inspiratory oxygen concentration: 30%). Body temperature was maintained at 38±1° C. The right carotid artery was cannulated and connected to a pressure transducer (MLT 1050, AD Instruments Ltd, Hastings, UK) to monitor mean arterial blood pressure (MAP) and heart rate (HR), which were continuously recorded on a data acquisition system such as Powerlab® Version 4.0.4, AD Instruments, Hastings, UK. The right jugular vein was cannulated for drug administration and the administration of Evans Blue dye (at the end of the experiment). A lateral thoracotomy was performed and the heart was suspended in a temporary pericardial cradle. A snare occluder was placed around the left anterior descending coronary artery (LAD). After completion of the surgical procedure the animals were allowed to stabilise for 30 min before LAD ligation. Five minutes prior to the onset of myocardial ischemia, a bolus injection (i.v.) of either vehicle or phosphonate was administered. The coronary artery was occluded at time 0 by tightening of the occluder. […]

Cc1nc(-c2ccccc2)c(C(F)P(=O)(O)O)c(CO)c1O (stereo not shown) [Compound 38, [Fluoro-(5-hydroxy-4-hydroxymethyl-6-methyl-2-phenyl-pyridin-3-yl)-methyl]-phosphonic acid]
myocardial infarct size (as a percentage of the weight of the AAR): reduced myocardial infarct size
